Laboratory results as given in ChEMBL document CHEMBL4699534, “Optimizing PEG-Extended Apelin Analogues as Cardioprotective Drug Leads: Importance of the KFRR Motif and Aromatic Head Group for Improved Physiological Activity” (J Med Chem, 2020).
Non-standard residues stand in square brackets, D forms with d. Residues, ends and D or L forms follow the SMILES beside them. *: point of attachment. Phe(4-Br) = N[C@@H](Cc1ccc(Br)cc1)C(=O)O; PEG7 = NCCOCCOCCOCCOCCOCCOCCOCCC(=O)O; Fmoc = O=C(OCC1c2ccccc2-c2ccccc21)*; NMeL = CN[C@@H](CC(C)C)C(=O)O; Nle = CCCC[C@H](N)C(=O)O; Aib = CC(C)(N)C(=O)O

Columns and labels:
[1] = Protein binding in 55% human plasma at 100 uM incubated for 3 hrs by LC/MS detection based equilibrium dialysis; type: ADME, cell-free; details: 55% plasma, read-out: PPB (converted)
[2] = Lipophilicity, log D of the compound in pH 7.4 PBS by LC/MS detection based shake flask assay; type: physicochemical
[3] = Protein binding in 55% mouse plasma at 100 uM incubated for 3 hrs by LC/MS detection based equilibrium dialysis; type: ADME, cell-free; details: 55% plasma, read-out: PPB (converted)
[4] = Half life in mouse plasma at 400 uM by HPLC analysis; type: ADME, cell-free
[5] = test system: Heart; assay: Cardioprotective activity in mouse Langendorff heart perfusion and ischemia-reperfusion injury model assessed as maximum derivative of change in systolic blood pressure over time at 1 uM dosed at start of reperfusion for 10 mins; type: functional
[6] = target: T1, Apelin receptor (Homo sapiens, UniProt P35414); assay: Activation of APJ receptor (unknown origin) expressed in Chem-5 cells assessed as stimulation of Ca2+ mobilization by Calcium 6-GF dye based fluorescence based assay; type: functional, cell-based
T1 sequence (P35414 whole entry): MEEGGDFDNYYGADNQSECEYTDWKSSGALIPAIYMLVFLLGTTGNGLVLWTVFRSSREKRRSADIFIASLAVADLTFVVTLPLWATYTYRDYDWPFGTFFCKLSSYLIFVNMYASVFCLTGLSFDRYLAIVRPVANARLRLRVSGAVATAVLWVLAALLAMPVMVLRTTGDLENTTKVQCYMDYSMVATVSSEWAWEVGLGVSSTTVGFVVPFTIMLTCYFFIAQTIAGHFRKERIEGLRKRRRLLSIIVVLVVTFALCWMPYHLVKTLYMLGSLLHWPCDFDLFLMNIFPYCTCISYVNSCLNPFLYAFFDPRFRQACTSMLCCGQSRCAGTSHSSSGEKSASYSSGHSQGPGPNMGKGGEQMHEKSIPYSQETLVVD

[7] = test system: Mus musculus; assay: Cardioprotective activity in C57BL/6 mouse assessed as reduction in mean arterial blood pressure at 1.4 uM/kg, iv measured after 15 mins relative to control; type: functional; details: 0.25 h
[8] = test system: Heart; assay: Cardioprotective activity in mouse Langendorff heart perfusion and ischemia-reperfusion injury model assessed as left ventricle developed pressure at 1 uM dosed at start of reperfusion for 10 mins; type: functional
[9] = Half life in human plasma at 400 uM by HPLC analysis; type: ADME, cell-free
[10] = target: T2, Apelin receptor (Rattus norvegicus, UniProt Q9JHG3); assay: Displacement of [125I]-pyr-1-apelin-13 from EGFP-tagged wild-type rat apelin receptor expressed in CHO cell membranes by gamma counting method; set-up: species or system Cell membrane
T2 sequence (Q9JHG3 whole entry): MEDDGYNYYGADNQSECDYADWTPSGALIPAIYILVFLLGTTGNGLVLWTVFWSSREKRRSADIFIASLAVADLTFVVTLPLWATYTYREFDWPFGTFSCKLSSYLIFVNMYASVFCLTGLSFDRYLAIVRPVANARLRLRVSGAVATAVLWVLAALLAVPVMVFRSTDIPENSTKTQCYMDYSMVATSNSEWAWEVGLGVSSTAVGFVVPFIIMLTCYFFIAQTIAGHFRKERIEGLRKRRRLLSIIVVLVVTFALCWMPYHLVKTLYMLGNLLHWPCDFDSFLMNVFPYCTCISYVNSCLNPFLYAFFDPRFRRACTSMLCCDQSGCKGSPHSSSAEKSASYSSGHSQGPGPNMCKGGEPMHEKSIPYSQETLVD

fraction unbound at 3 h, 100 µM [1]: 0.06
logD [2]: -1.45
fraction unbound at 3 h, 100 µM [3]: 0.11
half-life at 400 µM [4]: 2.8 h
EC50 [6]: 2.51 nM
half-life at 400 µM [9]: 27 h
IC50 [10]: 0.55 nM
Structure (SMILES): CCCC[C@H](NC(=O)[C@@H]1CCCN1C(=O)CNC(=O)[C@H](CCCCN)NC(=O)[C@H](Cc1c[nH]cn1)NC(=O)[C@H](CO)NC(=O)[C@H](CC(C)C)N(C)C(=O)[C@H](CCCNC(=N)N)NC(=O)[C@@H]1CCCN1C(=O)[C@H](CCCNC(=N)N)NC(=O)[C@H](CCC(N)=O)NC(=O)[C@H](CCCNC(=N)N)NC(=O)[C@H](CCCNC(=N)N)NC(=O)[C@H](Cc1ccccc1)NC(=O)[C@H](CCCCN)NC(=O)CCOCCOCCOCCOCCOCCOCCOCCNC(=O)OCC1c2ccccc2-c2ccccc21)C(=O)NC(C)(C)C(=O)N[C@@H](Cc1ccc(Br)cc1)C(=O)O ({Fmoc-PEG7}-KFRRQRPR[NMeL]SHKGP[Nle][Aib][Phe(4-Br)]-OH)
dP/dt max [5]: 2050 mmHg/s
Activity [7]: 47 mmHg
Activity [8]: 90 mmHg
